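Following 48 hours of exposure in 96-well plates, responses at five concentrations were used to interpolate endpoints linearly. TGI marks complete inhibition of growth.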
Experiments:
Test in all cases: NCI-60 cell line screen, 48 h
SF-268 CNS = test system: SF-268 CNS
MOLT-4 leukemia = test system: MOLT-4 leukemia
CCRF-CEM leukemia = test system: CCRF-CEM leukemia
RXF-631 renal = test system: RXF-631 renal
COLO 205 colon = test system: COLO 205 colon
KM12 colon = test system: KM12 colon
RPMI-8226 leukemia = test system: RPMI-8226 leukemia
SK-MEL-28 melanoma = test system: SK-MEL-28 melanoma
EKVX NSCLC = test system: EKVX NSCLC
XF 498 CNS = test system: XF 498 CNS
SNB-75 CNS = test system: SNB-75 CNS
OVCAR-5 ovarian = test system: OVCAR-5 ovarian
HOP-92 NSCLC = test system: HOP-92 NSCLC
TK-10 renal = test system: TK-10 renal
RXF 393 renal = test system: RXF 393 renal
A549 NSCLC = test system: A549 NSCLC
HL-60(TB) leukemia = test system: HL-60(TB) leukemia
UACC-257 melanoma = test system: UACC-257 melanoma
786-0 renal = test system: 786-0 renal
SK-MEL-2 melanoma = test system: SK-MEL-2 melanoma
M14 melanoma = test system: M14 melanoma
DMS 114 small cell lung = test system: DMS 114 small cell lung
SF-295 CNS = test system: SF-295 CNS
HOP-18 NSCLC = test system: HOP-18 NSCLC
M19-MEL melanoma = test system: M19-MEL melanoma
SNB-78 CNS = test system: SNB-78 CNS
OVCAR-3 ovarian = test system: OVCAR-3 ovarian
NCI-H226 lung = test system: NCI-H226 lung
SR leukemia = test system: SR leukemia
SW-620 colon = test system: SW-620 colon
HCC-2998 colon = test system: HCC-2998 colon
NCI-H522 lung = test system: NCI-H522 lung
ACHN renal = test system: ACHN renal
SF-539 CNS = test system: SF-539 CNS
MALME-3M melanoma = test system: MALME-3M melanoma
DLD-1 colon = test system: DLD-1 colon
SN12C renal = test system: SN12C renal
UO-31 renal = test system: UO-31 renal
HCT-15 colon = test system: HCT-15 colon
U251 CNS = test system: U251 CNS
K-562 leukemia = test system: K-562 leukemia
SK-MEL-5 melanoma = test system: SK-MEL-5 melanoma
OVCAR-4 ovarian = test system: OVCAR-4 ovarian
NCI-H23 lung = test system: NCI-H23 lung
A498 renal = test system: A498 renal
DMS 273 small cell lung = test system: DMS 273 small cell lung
OVCAR-8 ovarian = test system: OVCAR-8 ovarian
SNB-19 CNS = test system: SNB-19 CNS
LXFL 529 NSCLC = test system: LXFL 529 NSCLC
NCI-H460 lung = test system: NCI-H460 lung
IGROV1 ovarian = test system: IGROV1 ovarian
UACC-62 melanoma = test system: UACC-62 melanoma
HCT-116 colon = test system: HCT-116 colon
LOX IMVI melanoma = test system: LOX IMVI melanoma
HT29 colon = test system: HT29 colon
SK-OV-3 ovarian = test system: SK-OV-3 ovarian
KM20L2 colon = test system: KM20L2 colon
CAKI-1 renal = test system: CAKI-1 renal
HOP-62 NSCLC = test system: HOP-62 NSCLC

CSc1ccc(/C=C2/C[N+](C)(C)C/C(=C/c3ccc(SC)cc3)C2=O)cc1
TGI (SF-268 CNS): 22.7 µM | TGI (MOLT-4 leukemia): 67.4 µM | TGI (CCRF-CEM leukemia): 31.5 µM | TGI (RXF-631 renal): > 100 µM | TGI (COLO 205 colon): 17.8 µM | TGI (KM12 colon): 15.9 µM | TGI (RPMI-8226 leukemia): 9.92 µM | TGI (SK-MEL-28 melanoma): 20.9 µM | TGI (EKVX NSCLC): 35.1 µM | TGI (XF 498 CNS): 29.1 µM | TGI (SNB-75 CNS): 62.4 µM | TGI (OVCAR-5 ovarian): 44 µM | TGI (HOP-92 NSCLC): 42.1 µM | TGI (TK-10 renal): > 100 µM | TGI (RXF 393 renal): 31.6 µM | TGI (A549 NSCLC): > 100 µM | TGI (HL-60(TB) leukemia): 9.82 µM | TGI (UACC-257 melanoma): 37.8 µM | TGI (786-0 renal): 26.8 µM | TGI (SK-MEL-2 melanoma): 36.2 µM | TGI (M14 melanoma): 28.8 µM | TGI (DMS 114 small cell lung): 21.1 µM | TGI (SF-295 CNS): 65 µM | TGI (HOP-18 NSCLC): 79.2 µM | TGI (M19-MEL melanoma): 19.8 µM | TGI (SNB-78 CNS): > 100 µM | TGI (OVCAR-3 ovarian): 38.3 µM | TGI (NCI-H226 lung): 72.5 µM | TGI (SR leukemia): 71.7 µM | TGI (SW-620 colon): 28.1 µM | TGI (HCC-2998 colon): 34 µM | TGI (NCI-H522 lung): 21.3 µM | TGI (ACHN renal): > 100 µM | TGI (SF-539 CNS): 34 µM | TGI (MALME-3M melanoma): 27.5 µM | TGI (DLD-1 colon): 22.8 µM | TGI (SN12C renal): 21.2 µM | TGI (UO-31 renal): > 100 µM | TGI (HCT-15 colon): > 100 µM | TGI (U251 CNS): 7.92 µM | TGI (K-562 leukemia): > 100 µM

CCCCCCCCCCCCCCCCOP(=O)(O)Oc1ccc(/C=C\c2ccc(OP(=O)(O)OCCCCCCCCCCCCCCCC)cc2)cc1
TGI (SF-268 CNS): > 100 µM | TGI (MOLT-4 leukemia): > 100 µM | TGI (CCRF-CEM leukemia): 88.7 µM | TGI (RXF-631 renal): > 100 µM | TGI (SK-MEL-5 melanoma): > 100 µM | TGI (COLO 205 colon): 33.6 µM | TGI (KM12 colon): > 100 µM | TGI (RPMI-8226 leukemia): 80 µM | TGI (SK-MEL-28 melanoma): > 100 µM | TGI (EKVX NSCLC): > 100 µM | TGI (OVCAR-4 ovarian): > 100 µM | TGI (SNB-75 CNS): 80.8 µM | TGI (OVCAR-5 ovarian): > 100 µM | TGI (HOP-92 NSCLC): 67.1 µM | TGI (TK-10 renal): 72.4 µM | TGI (NCI-H23 lung): > 100 µM | TGI (RXF 393 renal): 9.1 µM | TGI (A549 NSCLC): > 100 µM | TGI (HL-60(TB) leukemia): 53.1 µM | TGI (UACC-257 melanoma): > 100 µM | TGI (A498 renal): > 100 µM | TGI (786-0 renal): > 100 µM | TGI (DMS 273 small cell lung): 62.4 µM | TGI (SK-MEL-2 melanoma): > 100 µM | TGI (M14 melanoma): > 100 µM | TGI (DMS 114 small cell lung): 49.4 µM | TGI (OVCAR-8 ovarian): 56.1 µM | TGI (SF-295 CNS): > 100 µM | TGI (HOP-18 NSCLC): > 100 µM | TGI (M19-MEL melanoma): > 100 µM | TGI (SNB-78 CNS): 91.9 µM | TGI (OVCAR-3 ovarian): > 100 µM | TGI (NCI-H226 lung): > 100 µM | TGI (SNB-19 CNS): > 100 µM | TGI (SR leukemia): 47.1 µM | TGI (SW-620 colon): > 100 µM | TGI (HCC-2998 colon): > 100 µM | TGI (LXFL 529 NSCLC): > 100 µM | TGI (NCI-H522 lung): > 100 µM | TGI (NCI-H460 lung): > 100 µM | TGI (ACHN renal): > 100 µM | TGI (IGROV1 ovarian): > 100 µM | TGI (MALME-3M melanoma): > 100 µM | TGI (UACC-62 melanoma): > 100 µM | TGI (DLD-1 colon): > 100 µM | TGI (HCT-116 colon): > 100 µM | TGI (LOX IMVI melanoma): > 100 µM | TGI (SN12C renal): > 100 µM | TGI (UO-31 renal): > 100 µM | TGI (HT29 colon): > 100 µM | TGI (SK-OV-3 ovarian): > 100 µM | TGI (HCT-15 colon): > 100 µM | TGI (KM20L2 colon): > 100 µM | TGI (CAKI-1 renal): > 100 µM | TGI (HOP-62 NSCLC): > 100 µM | TGI (U251 CNS): > 100 µM | TGI (K-562 leukemia): > 100 µM
